In the supplement of paper PMC10307832:

How the values were obtained:
Assay in all cases: relative viability (nuclei count vs DMSO), 5 days (fraction); higher = more cells survive
[1] = compound: CC(C)=CC[C@@H](O)C1=CC(=O)c2c(O)ccc(O)c2C1=O [Shikonin] + CCNC(=O)c1noc(-c2cc(C(C)C)c(O)cc2O)c1-c1ccc(CN2CCOCC2)cc1 [Luminespib] (partner 0.01 µM)
Summary of the method: (§1)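 A single step with final 0.05% Triton X-100, 1% formaldehyde and 1 ug/ml Hoechst fixed the cells and stained nuclei 5 days after treatment. Lung cancer cell lines in 1536-well plates had been treated by pin tool the day after seeding with one drug alone or a fixed anchor-drug dose plus five library-drug doses (not always all listed) in √10 steps, and nuclei were counted on 4× images. Relative viability is the ratio of nuclei in treated wells to nuclei in vehicle wells, taken as the median of duplicate plates.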

[2] = compound: CC(C)N(CCCNC(=O)Nc1ccc(C(C)(C)C)cc1)C[C@H]1O[C@@H](n2ccc3c(N)ncnc32)[C@H](O)[C@@H]1O + Cc1cc(Nc2cc(N3CCN(C)CC3)nc(Sc3ccc(NC(=O)C4CC4)cc3)n2)n[nH]1 [Tozasertib] (partner 0.1 µM)
Summary of the method: as §1

[3] = compound: CC(C)=CC[C@@H](O)C1=CC(=O)c2c(O)ccc(O)c2C1=O [Shikonin] + CC(C)C[C@H](NC(=O)[C@H](Cc1ccccc1)NC(=O)c1cnccn1)B(O)O [Bortezomib] (partner 0.002 µM)
Summary of the method: as §1

[4] = compound: CC(C)=CC[C@@H](O)C1=CC(=O)c2c(O)ccc(O)c2C1=O [Shikonin] + Nc1nc2[nH]cc(CCc3ccc(C(=O)N[C@@H](CCC(=O)O)C(=O)O)cc3)c2c(=O)[nH]1 [Pemetrexed] (partner 0.2 µM)
Summary of the method: as §1

Which relative viability ([1]; first compound 0.01 µM) does the source give for UMC-11 here?
Its relative viability is 0.997.

What about the relative viability ([1]; first compound 0.1 µM) of the same cell line?
The relative viability was 1.05.

What about the relative viability ([1]; first compound 0.3162 µM) of the same cell line?
The relative viability was 0.986.

And the relative viability ([1]; first compound 1 µM)?
The relative viability was 0.996.

And the relative viability ([2]; first compound 0.08 µM)?
The relative viability was 0.185.

What about the relative viability ([2]; first compound 0.253 µM) of the same cell line?
Its relative viability is 0.193.

What about the relative viability ([2]; first compound 0.8 µM) of the same cell line?
Its relative viability is 0.231.

And the relative viability ([2]; first compound 2.53 µM)?
Its relative viability is 0.218.

What about the relative viability ([2]; first compound 8 µM) of the same cell line?
Its relative viability is 0.175.

And the relative viability ([3]; first compound 0.01 µM)?
The relative viability was 0.773.

What about the relative viability ([3]; first compound 0.1 µM) of the same cell line?
The relative viability was 0.854.

And the relative viability ([3]; first compound 0.3162 µM)?
The relative viability was 0.675.

And the relative viability ([3]; first compound 1 µM)?
The relative viability was 0.812.

What about the relative viability ([4]; first compound 0.01 µM) of the same cell line?
Its relative viability is 0.813.

What about the relative viability ([4]; first compound 0.1 µM) of the same cell line?
Its relative viability is 0.942.

What about the relative viability ([4]; first compound 0.3162 µM) of the same cell line?
The relative viability was 0.836.

And the relative viability ([4]; first compound 1 µM)?
The relative viability was 0.793.
